According to patent US7960374B2, “Tricyclic compounds, compositions, and methods useful in the treatment or prophylaxis of 5-HT6 receptor-related disorders” (Proximagen Limited, priority 2006, dated 2011):
pIC50, pKi: −log10 of the molar value.

Key:
human 5-HT6 receptor [1] = biological target: T1, human 5-HT6 receptor (Homo sapiens, UniProt P50406); assay: 5-HT6 receptor binding assay ([3H]-LSD, SPA); settings: for pKi: [3H]-LSD as labeled ligand, membranes of HEK293 cells expressing human 5-HT6, read-out: Binding affinity (Ki) at the human 5-HT6 receptor
T1 construct: expressed in transfected cells; host or cells: HEK293
T1 sequence (P50406 whole entry): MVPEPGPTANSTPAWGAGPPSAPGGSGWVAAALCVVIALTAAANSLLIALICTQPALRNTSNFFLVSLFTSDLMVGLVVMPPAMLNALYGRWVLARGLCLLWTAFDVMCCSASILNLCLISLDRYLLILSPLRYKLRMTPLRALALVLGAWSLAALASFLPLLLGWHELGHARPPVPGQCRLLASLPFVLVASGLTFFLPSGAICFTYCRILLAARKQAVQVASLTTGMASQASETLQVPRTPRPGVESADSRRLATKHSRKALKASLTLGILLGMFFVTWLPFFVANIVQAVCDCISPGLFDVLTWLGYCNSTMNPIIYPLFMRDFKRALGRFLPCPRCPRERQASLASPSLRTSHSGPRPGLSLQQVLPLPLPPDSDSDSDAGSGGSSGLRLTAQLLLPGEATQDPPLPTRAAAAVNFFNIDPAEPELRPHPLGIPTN

human 5-HT6 receptor [2] = biological target: T1, human 5-HT6 receptor; assay: 5-HT6 intrinsic activity assay (inhibition of 5-HT induced increase in cAMP); format: cell-based; settings: read-out: Antagonist potency at the human 5-HT6 receptor, fKi (= IC50,corr)
Experimental: (b) 5-HT6 Intrinsic Activity Assay
Briefly, HEK293/5-HT6 cells were seeded in polylysine coated 96-well plates at a density of 25,000/well and grown in DMEM (Dulbecco's Modified Eagle Medium) (without phenol-red) containing 5% dialyzed Foetal Bovine Serum for 48 h at 37° C. in a 5% CO2 incubator. The medium was then aspirated and replaced by 0.1 ml assay medium (Hanks Balance Salt Solution containing 20 mM HEPES, 1.5 mM isobutylmethylxanthine and 1 mg/ml bovine serum albumin). After addition of test substances, 50 μl dissolved in assay medium, the cells were incubated for 10 min at 37° C. in a 5% CO2 incubator. The medium was again aspirated and the cAMP content was determined using a radioactive cAMP kit (Amersham Pharmacia Biotech, BIOTRAK RPA559).

pKi (human 5-HT6 receptor [1]) | pIC50 (human 5-HT6 receptor [2]) | Hill coefficient (human 5-HT6 receptor [1]; three experiments) | Compound
8.70 | 8.30 |  | O=S(=O)(c1ccccc1)n1ccc2c3c(ccc21)OCCNC3 [Example 49, 8-(Phenylsulfonyl)-1,3,4,8-tetrahydro-2H-[1,4]oxazepino[6,7-e]indole]
8.70 | 8.52 |  | CN1CCOc2ccc3c(ccn3S(=O)(=O)c3ccccc3)c2C1 [Example 5, 2-Methyl-8-(phenylsulfonyl)-1,3,4,8-tetrahydro-2H-[1,4]oxazepino[6,7-e]indole]
9.00 | 9.00 |  | CN1CCOc2ccc3c(ccn3S(=O)(=O)c3ccc4ncsc4c3)c2C1 [Example 10, 8-(1,3-Benzothiazol-6-ylsulfonyl)-2-methyl-1,3,4,8-tetrahydro-2H-[1,4]oxazepino[6,7-e]indole]
 |  | 0.94 (SD 0.09) | NCCc1c[nH]c2ccc(O)cc12 [Example 5-HT, 5-hydroxytryptamine, reference compound]
